Data reported in patent US4110327A, “2,3 Diketo-piperazinocarbonylamino alkanoic acids and derivatives” (Toyama Chemical Co., Ltd., priority 1974, dated 1978).
Converted amounts (≈) assume the structure as drawn.

Legend:
Type in all cases: cell-based
[1] = test system: Escherichia coli; experiment: MIC against clinical isolates; conditions: unit assumed
[2] = test system: Pseudomonas aeruginosa I.F.O.; experiment: MIC against standard strain, plate method; conditions: unit assumed
Procedure, shortened: (§1)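 Minimum inhibitory concentrations were determined on agar plates of heart infusion medium (pH 7.4) inoculated with 10^4 cells per plate.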

[3] = test system: Escherichia coli NIHJ; experiment: MIC against standard strain, plate method; conditions: unit assumed
Procedure, shortened: as §1

[4] = test system: Klebsiella pneumoniae; experiment: MIC against standard strain, plate method; conditions: unit assumed
Procedure, shortened: as §1

[5] = test system: Proteus vulgaris 3027; experiment: MIC against standard strain, plate method; conditions: Proteus vulgaris 3027, standard strain; unit assumed
Procedure, shortened: as §1

[6] = test system: Staphylococcus aureus 209p; experiment: MIC against standard strain, plate method; conditions: unit assumed
Procedure, shortened: as §1

[7] = test system: Klebsiella pneumoniae; experiment: MIC against clinical isolates; conditions: unit assumed
[8] = test system: Proteus mirabilis; experiment: MIC against clinical isolates; conditions: clinical isolate, unit assumed
[9] = test system: Proteus vulgaris; experiment: MIC against clinical isolates; conditions: clinical isolate, unit assumed
[10] = test system: Pseudomonas aeruginosa; experiment: MIC against clinical isolates; conditions: unit assumed
[11] = test system: Staphylococcus aureus; experiment: MIC against clinical isolates; conditions: unit assumed
[12] = test system: Proteus rettgeri; experiment: MIC against clinical isolates; conditions: clinical isolate, unit assumed
[13] = test system: Proteus morganii; experiment: MIC against clinical isolates; conditions: clinical isolate, unit assumed

## CN1CCN(C(=O)NC(C(=O)NC2C(=O)N3C(C(=O)O)=C(CSc4nnnn4C)CSC23)c2ccccc2)C(=O)C1=O (single isomer, unassigned) [compound 63]
[1]; clinical isolate GN 3435
  MIC: 3.13 µg/mL (≈ 5.08 µM)
[1]; clinical isolate GN 3452
  MIC: 12.5 µg/mL (≈ 20.3 µM)
[1]; clinical isolate GN 3465
  MIC: 25 µg/mL (≈ 40.6 µM)
[1]; clinical isolate GN 3481
  MIC: 3.13 µg/mL (≈ 5.08 µM)
[1]; clinical isolate GN 3611
  MIC: 100 µg/mL (≈ 162 µM)
[1]; clinical isolate K-1
  MIC: 3.13 µg/mL (≈ 5.08 µM)
[1]; clinical isolate K-2
  MIC: 6.25 µg/mL (≈ 10.2 µM)
[1]; clinical isolate K-3
  MIC: 50 µg/mL (≈ 81.2 µM)
[1]; clinical isolate K-4
  MIC: 6.25 µg/mL (≈ 10.2 µM)
[2]
  MIC: 25 µg/mL (≈ 40.6 µM)
[3]
  MIC: < 0.79 µg/mL
[4]
  MIC: < 0.79 µg/mL
[5]
  MIC: 1.57 µg/mL (≈ 2.55 µM)
[6]
  MIC: < 0.79 µg/mL
[7]; clinical isolate GN 917
  MIC: 3.13 µg/mL (≈ 5.08 µM)
[7]; clinical isolate GN 4081
  MIC: 6.25 µg/mL (≈ 10.2 µM)
[7]; clinical isolate GN 4117
  MIC: 6.25 µg/mL (≈ 10.2 µM)
[8]
  MIC: 3.13 µg/mL (≈ 5.08 µM)
[9]
  MIC: 1.56 µg/mL (≈ 2.53 µM)
[10]; clinical isolate GN 82
  MIC: 50 µg/mL (≈ 81.2 µM)
[10]; clinical isolate GN 163
  MIC: 25 µg/mL (≈ 40.6 µM)
[10]; clinical isolate GN 221
  MIC: 25 µg/mL (≈ 40.6 µM)
[10]; clinical isolate GN 244
  MIC: 50 µg/mL (≈ 81.2 µM)
[10]; clinical isolate GN 376
  MIC: 50 µg/mL (≈ 81.2 µM)
[10]; clinical isolate GN 383
  MIC: 25 µg/mL (≈ 40.6 µM)
[10]; clinical isolate GN 1035
  MIC: 100 µg/mL (≈ 162 µM)
[10]; clinical isolate GN 1091
  MIC: 50 µg/mL (≈ 81.2 µM)
[10]; clinical isolate GN 2565
  MIC: 50 µg/mL (≈ 81.2 µM)
[10]; clinical isolate GN 2987
  MIC: 25 µg/mL (≈ 40.6 µM)
[10]; clinical isolate S-1
  MIC: 100 µg/mL (≈ 162 µM)
[10]; clinical isolate S-2
  MIC: 100 µg/mL (≈ 162 µM)
[10]; clinical isolate S-3
  MIC: 100 µg/mL (≈ 162 µM)
[10]; clinical isolate S-4
  MIC: 100 µg/mL (≈ 162 µM)
[11]; clinical isolate F-1
  MIC: 3.13 µg/mL (≈ 5.08 µM)
[11]; clinical isolate F-2
  MIC: 0.78 µg/mL (≈ 1.27 µM)
[11]; clinical isolate F-3
  MIC: 1.56 µg/mL (≈ 2.53 µM)
[11]; clinical isolate F-4
  MIC: 1.56 µg/mL (≈ 2.53 µM)
[11]; clinical isolate F-5
  MIC: 12.5 µg/mL (≈ 20.3 µM)
[11]; clinical isolate MS 8588
  MIC: 1.56 µg/mL (≈ 2.53 µM)
[11]; clinical isolate MS 8596
  MIC: 1.56 µg/mL (≈ 2.53 µM)
[11]; clinical isolate MS 8619
  MIC: 0.78 µg/mL (≈ 1.27 µM)
[11]; clinical isolate MS 8684
  MIC: 1.56 µg/mL (≈ 2.53 µM)
[11]; clinical isolate MS 8713
  MIC: 1.56 µg/mL (≈ 2.53 µM)
[12]
  MIC: 3.13 µg/mL (≈ 5.08 µM)
[13]
  MIC: 3.13 µg/mL (≈ 5.08 µM)
